Values of other authors in patent publication US7709454B2, “Methods and compositions for inhibiting tumorigenesis” (New York University, priority 1997, dated 2010).

Key:
[1] = system: MMTV-N-RAS^N transgenic Mice/lymphoid and mammary tumors; settings: 40 mg/kg/d; cited from earlier work
[2] = cell type not given; cited from earlier work
[3] = system: MMTV-v-H-RAS transgenic mice/Mammary, salivary Carcinoma; settings: cited from earlier work
[4] = system: MMTV-TGFa/neu transgenic Mice/mammary tumors; settings: 40 mg/kg/d; cited from earlier work

CC[C@H](C)[C@@H](CO[C@@H](Cc1ccccc1)C(=O)N[C@@H](CCS(C)(=O)=O)C(=O)OC(C)C)NC[C@@H](N)CS [L-744,832]
tumor mean growth rate in the presence of the Ftase inhibitor [1]: −0.7 vs 28.3 mm3/day
IC50 [2]: 1 to 10 µM
tumor mean growth rate in the presence of the Ftase inhibitor ([3]; 10-40 mg/kg/d): −5.4 vs 16.7 mm3/day
tumor response ([3]; mammary and salivary carcinomas in MMTV-v-Ha-Ras mice): induced regression
tumor mean growth rate in the presence of the Ftase inhibitor [4]: −7.4 vs 19 mm3/day
